The values below come from ChEMBL document CHEMBL1125335 (J Med Chem, 1992).

For assay [1], the target named is T1, Adenosine receptor A1 (Cavia porcellus) (UniProt P47745).
T1 sequence (whole entry): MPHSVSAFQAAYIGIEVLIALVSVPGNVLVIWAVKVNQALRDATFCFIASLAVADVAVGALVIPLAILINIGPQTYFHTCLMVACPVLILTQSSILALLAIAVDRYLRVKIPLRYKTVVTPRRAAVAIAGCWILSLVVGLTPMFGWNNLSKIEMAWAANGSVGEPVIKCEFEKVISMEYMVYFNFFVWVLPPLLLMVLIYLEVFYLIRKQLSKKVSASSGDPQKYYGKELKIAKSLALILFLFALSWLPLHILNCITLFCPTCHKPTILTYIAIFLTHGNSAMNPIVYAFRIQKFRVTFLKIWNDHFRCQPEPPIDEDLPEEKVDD
As to the kind of experiment: Positive chronotropic effect on isolated guinea pig right atrium (heart stimulation). Type of assay: functional, tissue-based. As to conditions: Cardiac atrium.

Assay [2] relates to Cavia porcellus. As to the kind of experiment: In vivo positive chronotropic effect on isolated guinea pig right atrium. Type of assay: functional, Cardiac atrium.
In assay [3] the target is T2, Adenosine receptor A1 (Cavia porcellus, UniProt P47745).
T2 sequence (P47745 whole entry): T1 sequence (whole entry)
As to the kind of experiment: Affinity against adenosine A1 receptor in the brain membranes by the displacement of [3H]CPX. Type of assay: cell membranes, Membrane. (Displacement assays read how much labelled ligand stays bound in the presence of the test substance.)

Assay [4] deals with Cavia porcellus. Kind of assay: In vivo reduction of acetylcholine-induced bronchospasm in guinea pigs by intraduodenal dose. Type of assay: functional.
Assay [5] in a line: Ratio of stimulatory activity in right atrium to relaxant activity in tracheal muscle. Type of assay: functional, Cardiac atrium.
Assay [6] in a line: Inhibitory activity against c-AMP phosphodiesterase in guinea pig tracheal muscle.
The target in assay [7] is Adenosine receptor A2a (Cavia porcellus, UniProt P46616). As to the kind of experiment: Affinity against adenosine A2 receptor in the brain membranes measured by the displacement of [3H]-CPX. Type of assay: cell membranes, Membrane.
Sequence of Adenosine receptor A2a (P46616 whole entry): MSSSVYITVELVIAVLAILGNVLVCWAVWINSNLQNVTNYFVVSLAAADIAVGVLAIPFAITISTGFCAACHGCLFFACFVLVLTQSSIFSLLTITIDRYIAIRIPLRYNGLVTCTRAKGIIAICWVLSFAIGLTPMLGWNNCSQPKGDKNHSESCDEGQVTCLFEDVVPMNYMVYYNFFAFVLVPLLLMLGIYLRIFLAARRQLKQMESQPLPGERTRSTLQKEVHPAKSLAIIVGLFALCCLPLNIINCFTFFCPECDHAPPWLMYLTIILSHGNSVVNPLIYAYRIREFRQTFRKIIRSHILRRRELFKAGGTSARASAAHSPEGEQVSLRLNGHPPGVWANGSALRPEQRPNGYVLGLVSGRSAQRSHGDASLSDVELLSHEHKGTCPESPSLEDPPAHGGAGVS
Assay [8] can be described thus: Inhibition of c-AMP phosphodiesterase activity in guinea pig tracheal muscle.
In assay [9] the target is Adenosine A2 receptor (Homo sapiens, UniProt P29275+P29274). As to the kind of experiment: Affinity against adenosine A2 receptor in brain membranes by displacement of [3H]CPX. Type of assay: cell membranes, Cavia porcellus, Membrane.

Molecules are shown by their SMILES. Where only a bound is given, the exact number is not on record here.

Regarding `CCCCn1c(=O)[nH]c2[nH]cnc2c1=O`, the EC15 in [1] is above 100 µM.

Regarding `CCCCn1c(=O)c2c(ncn2C)n(CCC)c1=O`, the ED15 in [2] is on record as above 100 mg kg-1 i.d. In addition, the Ki in [3] was 6 µM; in assay [6] it was 30.1 µM. This molecule displayed an ED50 in assay [4] of 2.34 mg/kg. The Broncho selectivity in assay [5] is 71.4. Moreover, the EC15 in [1] was above 100 µM.

On to `Cn1c(=O)[nH]c2nc[nH]c2c1=O` [1-METHYLXANTHINE], for which the Ki is 11.5 µM in [3] and 67.1 µM in assay [7].

For `CCn1c(=O)[nH]c2[nH]cnc2c1=O`, the EC15 in assay [1] was above 100 µM.

As for `CCCCn1c(=O)c2[nH]cnc2n(CCC)c1=O`, the inhibition constant (Ki) in assay [3] was 0.02 µM; in assay [7] it was 4.1 µM.

In the case of `CCCn1c(=O)n(CC)c(=O)c2c1ncn2C`, the Ki in assay [3] worked out at 11.8 µM; in [6], 19.4 µM. Also, in [5], the Broncho selectivity is listed as 4. In assay [1], this molecule came in with an EC15 of 30 µM.

As for `CCCn1cnc2c1c(=O)[nH]c(=O)n2CCC`, the figures for the inhibition constant Ki in assay [3] and in assay [8] were 18.2 µM and 35 µM, respectively. For the same molecule, the Broncho selectivity in [5] is listed as above 6.3. The EC15 in assay [1] is above 100 µM.

Turning to `CCCCn1c(=O)[nH]c2nc[nH]c2c1=O`, the figures for the Ki in [3] and in assay [7] were 3 µM and 15.4 µM, respectively.

In assay [3], `CCCn1c(=O)c2c(ncn2C)n(CCC)c1=O` returned a Ki of 7.7 µM. The molecule also returned an EC15 in assay [1] of 45.8 µM.

In the case of `CCCn1c(=O)[nH]c(=O)c2c1ncn2CC`, the Ki in assay [3] is 40.4 µM; in assay [6], 13.2 µM. In addition, the Broncho selectivity in assay [5] is on record as 12. The same molecule displayed an EC15 in assay [1] above 100 µM.

In assay [2], `CCCn1c(=O)[nH]c(=O)c2nc[nH]c21` [ENPROFYLLINE] yielded an ED15 of 95.1 mg kg-1 i.d. For the same molecule, in assay [4], the 50% effect level (ED50) was put at a dose of 25.7 mg/kg. In addition, the EC15 in assay [1] was 18.3 µM.

Molecule `CCCn1c(=O)[nH]c2[nH]cnc2c1=O` returned an EC15 in assay [1] above 100 µM.

As for `CCCCn1cnc2c1c(=O)[nH]c(=O)n2CCC`, the Ki in [3] was found to be 12.1 µM; in [8], 36.5 µM. Besides, the Broncho selectivity in assay [5] was 7.1. This molecule displayed an EC15 in assay [1] above 100 µM.

`Cn1c(=O)c2nc[nH]c2n(C)c1=O.O` [THEOPHYLLINE] showed an ED15 in assay [2] of 20.2 mg kg-1 i.d. It took a dose of 23.4 mg/kg to reach the 50% effect level in assay [4] (ED50).

In the case of `CCCn1c(=O)[nH]c2nc[nH]c2c1=O`, the inhibition constant (Ki) in assay [3] amounted to 3.3 µM; in [7] it was 23.4 µM.

As to `Cn1c(=O)[nH]c(=O)c2[nH]cnc21` [3-METHYLXANTHINE], the inhibition constant (Ki) in assay [9] came to 133 µM. The same molecule had an EC15 in assay [1] above 100 µM.

Turning to `CCCCn1c(=O)n(C)c(=O)c2[nH]cnc21`, the values for the Ki in assay [3], in assay [7] and in assay [6] were 1.9 µM, 4.8 µM and 10.2 µM, respectively. The Broncho selectivity in assay [5] is 1.7. The molecule further registered an EC15 in assay [1] of 2.2 µM.

Turning to `CCCn1c(=O)n(C)c(=O)c2c1ncn2CC`, in [3], the affinity, expressed as Ki, was 14.2 µM. In addition, the EC15 in [1] is above 100 µM.

`CCCCn1cnc2c1c(=O)n(C)c(=O)n2CCC`: the Ki in [3] is 7.3 µM; in assay [8], above 200 µM; in assay [7], 15.3 µM. Further, the Broncho selectivity in assay [5] came out at 32.3. In assay [1], this molecule displayed an EC15 above 100 µM.

In assay [3], `CCCCn1c(=O)c2nc[nH]c2n(C)c1=O` had a Ki of 4.3 µM. The same molecule showed an EC15 in [1] of 90.5 µM.

Molecule `CCn1c(=O)[nH]c(=O)c2[nH]cnc21` registered a Ki in [3] of 117 µM. Also, the EC15 in assay [1] was above 100 µM.

`CCCn1c(=O)c2nc[nH]c2n(C)c1=O` displayed an inhibition constant Ki in assay [8] of 26 µM. Besides, the Broncho selectivity in assay [5] is reported as 3.7. This molecule yielded an EC15 in assay [1] of 36.2 µM.

On to `CCCn1c(=O)c2[nH]cnc2n(C)c1=O`, for which the inhibitory constant (Ki) in assay [3] was 3.4 µM.

As for `CCCn1c(=O)n(C)c(=O)c2[nH]cnc21`, the inhibition constant Ki in assay [3] was 1.9 µM; in assay [8], 10.6 µM; in assay [7], 8 µM. Moreover, the Broncho selectivity in [5] turned out to be 2.1. For the same molecule, the EC15 in assay [1] was 3.3 µM.

In turn, `Cn1c(=O)c2[nH]cnc2n(C)c1=O` showed an EC15 in assay [1] of 62 µM.

Turning to `CCCn1c(=O)n(CC)c(=O)c2[nH]cnc21`, the Ki in assay [3] worked out at 1.4 µM; in [8], 24.1 µM; in [7] it was 3.9 µM. Moreover, the Broncho selectivity in [5] is reported as 4.7. The EC15 in [1] was 6.1 µM.

`O=c1[nH]c(=O)c2nc[nH]c2[nH]1` showed an EC15 in [1] above 100 µM.

Consider `CCCCn1c(=O)[nH]c(=O)c2[nH]cnc21`, for which the Ki is 21.4 µM in assay [3] and 32 µM in [8]. Moreover, the Broncho selectivity in assay [5] came out at 2.1. In assay [1], this molecule had an EC15 of 17 µM.

`CCn1c(=O)c2nc[nH]c2n(C)c1=O` returned a Ki in assay [3] of 9.8 µM. The same molecule displayed an EC15 in [1] of 34 µM.

`CCCn1c(=O)c2nc[nH]c2n(CCC)c1=O`: affinity in assay [3] was put at a Ki of 0.2 µM. In assay [1], this molecule came in with an EC15 of 20 µM.

Regarding `CCCn1cnc2c1c(=O)n(C)c(=O)n2CCC`, the inhibition constant Ki in [3] worked out at 9.4 µM; in assay [8], 30.8 µM; in assay [7], 43.8 µM. Besides, the Broncho selectivity in assay [5] stood at 9. This molecule also had an EC15 in assay [1] of 45.2 µM.

For the molecule `CCCn1c(=O)n(C)c(=O)c2c1ncn2C`, the Ki in assay [3] stood at 14.5 µM; in [7], 20.1 µM. Moreover, the EC15 in [1] is 45.4 µM.

In the case of `CCn1c(=O)n(C)c(=O)c2[nH]cnc21`, the Ki was determined as 7.6 µM in [3] and 25.4 µM in assay [7]. The molecule also returned an EC15 in [1] of 28.5 µM.

In assay [2], `CCCCn1c(=O)c2nc[nH]c2n(CCC)c1=O` showed an ED15 above 100 mg kg-1 i.d. In assay [4], this molecule returned an ED50 of 2.87 mg/kg. The EC15 in assay [1] came out at 29 µM.

The molecule `CCCn1c(=O)[nH]c(=O)c2c1ncn2C` registered a Ki in assay [3] of 90.6 µM. Also, the EC15 in [1] was above 100 µM.

On to `CCn1c(=O)[nH]c2nc[nH]c2c1=O`, for which the figures for the inhibition constant (Ki) in assay [3] and in assay [7] were 9.8 µM and 34 µM, respectively.

In assay [3], `O=c1[nH]c(=O)c2[nH]cnc2[nH]1` [XANTHINE] yielded a Ki above 200 µM.

The molecule `Cn1c(=O)[nH]c2[nH]cnc2c1=O` [1-METHYLXANTHINE] returned an inhibitory constant (Ki) in [8] of 163 µM. Further, the Broncho selectivity in assay [5] was 1.3. In assay [1], the EC15 is above 100 µM.

A word on the Ki: it is a measure of affinity in units of concentration, obtained from inhibition or displacement. What is called ED50 is the midpoint of the dose-response relation. The low end stands for greater potency, the high end for weaker potency.
